Data taken from US5861424A, “Composition and method for treating cancer” (priority 1995, dated 1999).
Like-named read-outs stand apart in the source and are kept apart here.

What was measured:
[1] = tested on: normal monkey kidney epithelial cell line CV-1; experiment: Colony formation assay, normal monkey kidney epithelial cells CV-1; settings: for IC50: Primates, Epithelial cell;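 for all read-outs here: colonies visualized by crystal violet staining, incubation at 37 °C, IC50 relative to untreated wells given culture medium alone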
Experimental: (§2) Human colon carcinoma cell line CX-1 or normal monkey kidney epithelial cell line CV-1 was chosen as representatives of cancer cells and normal cells, respectively. […] CX-1 cells (2,000 cells/well) and CV-1 cells (1,000 cells/well) were plated in 24-well plastic culture plates. […] The control received culture media only. Cells were treated with compounds of General Formulas (1) to (6) at 37° C. for 24 hours. After rinsing with fresh culture medium three times, the cells were further incubated at 37° C. for 7 to 10 days. Cell colonies were fixed and stained with 2% crystal violet in 70% ethanol for 10 minutes and rinsed in water. […] The selectivity is defined as the ratio of IC50 for CV-1 and IC50 for CX-1.

[2] = tested on: human melanoma LOX cell line; experiment: Colony formation assay, human melanoma LOX; type: cell-based; settings: Table V; for Selectivity (CV-1 IC50 / LOX IC50): CV-1/LOX
Description: (§1) The control received culture media only.

[3] = tested on: human breast carcinoma MCF-7 cell line; experiment: Colony formation assay, human breast carcinoma MCF-7; type: cell-based; settings: Table VI
Description: as §1
The Selectivity values, MCF-7 values and CV-1 values for compounds of the General Formulas (1) to (6) used in the present invention are shown in Table VI below.

human melanoma LOX = experiment: Survival of nude mice implanted with human melanoma LOX; type: in vivo, human melanoma in male athymic Swiss nu/nu mouse; settings: Mus musculus, ip, 24 h, read-out: T/C (survival)
Experimental: LOX, a human melanoma cell line, grown subcutaneously in nude mice was excised, trypsinized to yield a single cell suspension using a metal grid with a […]. Red blood cells were lysed by incubation with 0.17 molar ammonium chloride at 4° C. for 20 minutes. Five million viable trypan blue negative cells made up in 0.1 ml of Dulbecco modified Eagles' medium (DME) were injected into the peritoneal cavity of a male athymic Swiss nu/nu mouse. The control group and each treatment group consisted of 5 to 10 mice. Treatment was commenced the following day by intraperitoneal injection.
Ten control mice received 0.25 ml of 2% dextrose on those days the treated groups were injected with the compounds of this invention. The compounds of the General Formulas. (1) to (6) used in this invention which were tested are listed in Table VIII below and the results obtained are shown in Table VIII and FIG. 1-6 of the accompanying drawings. T/C is the ratio, expressed as a percentage of the mean survival age of the treated group to the mean survival age of the untreated control group.

[4] = tested on: human colon carcinoma cell line CX-1; experiment: Colony formation assay, human colon carcinoma CX-1; type: cell-based; settings: Table III; for CX-1 (IC50) / IC50: 24 h treatment, colony count after 7 to 10 days; for Selectivity (ratio of IC50 for CV-1 and IC50 for CX-1): CV-1/CX-1; for IC50: Homo sapiens, Colon carcinoma cell, read-out: CX-1 (IC50)
Experimental: as §2

[5] = tested on: human bladder carcinoma EJ cell line; experiment: Colony formation assay, human bladder carcinoma EJ; type: cell-based; settings: Table IV
Description: as §1

[6] = tested on: human pancreatic carcinoma CRL 1420 cell line; experiment: Colony formation assay, human pancreatic carcinoma CRL 1420; type: cell-based; settings: Table VII; for Selectivity (CV-1 IC50 / CRL-1420 IC50): CV-1/CRL-1420; for IC50: Homo sapiens, 24 h
Description: as §1
The Selectivity values, CRL 1420 values and CV-1 values for compounds of the General Formulas (1) to (6) used in the present invention are shown in Table VII below.

[7] = tested on: human colon carcinoma CX-1; experiment: Anti-human colon carcinoma CX-1 activity in nude mice, tumor inhibition; type: in vivo, human colon carcinoma in Swiss nu/nu mice; settings: Mus musculus, ip, 24 h, 20 mg/kg
Description: Human colon carcinoma cell line CX-1 has been chosen by the National Cancer Institute as a mode for cancer drug screening (NCI Protocol 3C2H2). It was established in culture from the surgical explant of the primary colon adenocarcinoma of a person with no previous chemotherapy. The cultured CX-1 cells, upon subcutaneous injection, can grow readily in nude mice as a moderately- to well-differentiated human colon carcinoma. CEA is expressed as expected for differentiated colon carcinoma cells. Abundant keratin, consistent with epithelial origin, is present. Increased uptake and prolonged retention of delocalized lipophilic cations are observed.
Swiss nu/nu mice obtained from Taconic Farm were housed in a pathogen-free environment. Tumors subcutaneously passaged in nude mice were excised under sterile conditions and converted to a single cell suspension using a metal grid with a 0.4 mm mesh. Red blood cells were lysed by incubation with 0.17M ammonium chloride at 4° C. for 20 minutes. Cells were scored for viability with trypan blue. Viable CX-1 cells (2.5 million) made up in 0.1 ml of cell culture medium were injected subcutaneously into each nude mouse. The mice were randomly allocated into a control group (five mice) and a treatment group (five mice per group). The drug treatment was commenced the next day. Doses and schedules were developed empirically and were based mainly on information on LD50 and LD10 obtained from preliminary toxicity studies. The control group received an equivalent volume of hydroxylpropyl-β-cyclodextrin-5% glucose solution.
The pharmaceutical compositions tested comprised solutions in 5% glucose subjected to sonication at concentrations of 1 mg/ml. Those compounds which were not completely dissolved by this procedure were dissolved in hydroxypropyl-β-cyclodextrin using the following method. Hydroxypropyl-β-cyclodextrin (45 g) was mixed with 100 ml of sterilized, double distilled water and stirred for four hours. Each of the compounds to be tested (20 mg) was mixed with 10 ml of hydroxypropyl-β-cyclodextrin solution and sonicated for 60 minutes in the dark. This solution was then diluted in 5% glucose to yield a final compound concentration of 0.5 mg/ml, and further sonicated for 60 minutes in the dark to assure that the compound was completely dissolved.
When the growth of tumors in the control group reached the exponential phase and the size of the tumor was palpable (usually 20 to 30 days after tumor implantation), the experiments were terminated. Tumors in each mouse were excised and weighed using an analytical balance. Total tumor weight in each group from five mice was calculated. Per cent tumor inhibition between the treated group and the control group was then calculated for each group.

[8] = read-out: CV-1 (IC50), Table III, 24 h treatment, colony count after 7 to 10 days
[9] = read-out: CV-1 (IC50), Table VII

CCN1C(=CC=c2sc(=Cc3sc4c5ccccc5ccc4[n+]3C)n(CC)c2=O)Sc2ccc3ccccc3c21 [Compound 52]
CV-1 (IC50) ([1]; Table III, 24 h treatment, colony count after 7 to 10 days): > 20 µg/mL | CV-1 (IC50) ([1]; Table IV): > 20 µg/mL | CV-1 (IC50) ([1]; Table V): > 20 µg/mL | CV-1 (IC50) ([1]; Table VI): > 20 µg/mL | CV-1 (IC50) ([1]; Table VII): > 20 µg/mL | LOX (IC50) ([2]; 24 h treatment): 0.08 µg/mL | Selectivity (CV-1 IC50 / LOX IC50) [2]: > 250 | MCF-7 (IC50) ([3]; 24 h treatment): 0.03 µg/mL | Selectivity (CV-1 IC50 / MCF-7 IC50) ([3]; CV-1/MCF-7): > 666 | response vs control in vivo at 10 mg/kg (human melanoma LOX; i.p. on day 1, 2, 3, 6, 9): 168% | CX-1 (IC50) [4]: 0.03 µg/mL | Selectivity (ratio of IC50 for CV-1 and IC50 for CX-1) [4]: > 667 | EJ (IC50) ([5]; 24 h treatment): 0.05 µg/mL | Selectivity (CV-1 IC50 / EJ IC50) ([5]; CV-1/EJ): > 400 | CRL-1420 (IC50) ([6]; 24 h treatment): 0.06 µg/mL | Selectivity (CV-1 IC50 / CRL-1420 IC50) [6]: > 333

C=CCn1c(=Cc2cc[n+](CC)c3ccccc23)sc(=CC=C2C=Cc3ccccc3N2CC)c1=O [Compound 249]
IC50 [1, 8]: 5 µg/mL | IC50 [1, 9]: 5 µg/mL | IC50 [4]: 0.05 µg/mL | Selectivity (ratio of IC50 for CV-1 and IC50 for CX-1) [4]: 100 | inhibition in vivo at 20 mg/kg ([7]; i.p. on day 1, 5, 7, 9): 41.1% | IC50 ([6]; 24 h treatment): 0.045 µg/mL | Selectivity (CV-1 IC50 / CRL-1420 IC50) [6]: 111

CCN1C(=CC=c2oc(=Cc3sc(-c4ccccc4)c(-c4ccccc4)[n+]3CC)n(CC)c2=O)Oc2ccccc21 [Compound 330]
IC50 [1, 8]: 2.5 µg/mL | response vs control in vivo at 5 mg/kg (human melanoma LOX; i.p. on day 1, 3, 5, 7, 9): 128% | IC50 [4]: 0.025 µg/mL | Selectivity (ratio of IC50 for CV-1 and IC50 for CX-1) [4]: 100

CCn1c(=Cc2sc3c4ccccc4ccc3[n+]2CC)sc(=CC=C2Sc3ccc4ccccc4c3N2C)c1=O [Compound 55]
inhibition in vivo at 20 mg/kg ([7]; i.p. on day 1, 4, 7, 11, 15, 18): 55.3%

CCN1C(=CC=c2sc(=Cc3scc[n+]3CC)n(CC)c2=O)Sc2ccc3ccccc3c21 [Compound 41]
IC50 [1, 9]: 1.5 µg/mL | response vs control in vivo at 5 mg/kg (human melanoma LOX; i.p. on day 1, 5, 9): 128% | IC50 ([6]; 24 h treatment): 0.05 µg/mL | Selectivity (CV-1 IC50 / CRL-1420 IC50) [6]: 120

CCN1C(=CC=c2sc(=Cc3sc4c5ccccc5ccc4[n+]3C)n(CC)c2=O)Sc2ccc3ccccc3c21 [Compound 33]
IC50 [1, 8]: 20 µg/mL | response vs control in vivo at 10 mg/kg (human melanoma LOX; i.p. on day 1, 2, 3, 4, 5, 7, 8, 9, 10, 11): 173% | IC50 [4]: 0.02 µg/mL | Selectivity (ratio of IC50 for CV-1 and IC50 for CX-1) [4]: 1000

CCN1C(=CC=c2sc(=Cc3sc4c5ccccc5ccc4[n+]3CC)n(CC)c2=O)Sc2ccc3ccccc3c21 [Compound 51]
IC50 ([2]; Homo sapiens, LOX, 24 h, 24 h treatment, read-out: LOX (IC50)): 0.09 µg/mL | Selectivity (CV-1 IC50 / LOX IC50) [2]: 222 | response vs control in vivo at 20 mg/kg (human melanoma LOX; 20 mg/kg, i.p. on day 1, 2, 3, 6, 9, 13): 174% | CX-1 (IC50) [4]: 0.03 µg/mL | Selectivity (ratio of IC50 for CV-1 and IC50 for CX-1) [4]: 333 | IC50 ([5]; Homo sapiens, EJ, 24 h, 24 h treatment, read-out: EJ (IC50)): 0.04 µg/mL | IC50 ([6]; 24 h treatment): 0.07 µg/mL | Selectivity (CV-1 IC50 / CRL-1420 IC50) [6]: 286

C=CCn1c(=Cc2cc[n+](CC)c3ccccc23)sc(=CC=C2C=CN(CC)c3ccccc32)c1=O [Compound 304]
inhibition in vivo at 20 mg/kg ([7]; i.p. on day 1, 7**, 9** (**10 mg/kg)): 65.9%
